Here are results for 21 molecules from patent US11046672B2, “Indolinones compounds and their use in the treatment of fibrotic diseases” (RESPIVERT LIMITED, priority 2015, dated 2021).

By IC50 is commonly meant the concentration that gives 50% inhibition. A word on the Ki: it is the equilibrium dissociation constant of an inhibitor or competing ligand from its target. In general, Papp refers to the rate of passage across a membrane or cell layer, normalised by area and donor concentration. Lower therefore signals slow passage. The MRT is a mean duration of stay, worked out from the concentration-time curve.

Values joined by “and” are separate entries in the source; they are usually repeats but may differ in a detail not shown here. Identical values can stand only once. Like-named read-outs stand apart in the source and are kept apart here.

For data set [1], the system named is MRC5 cells. Nature of the data set: Cell viability assay in MRC5 cells (MTT).
Data set [2] concerns the target T1, PDGFRβ (Homo sapiens (Human), UniProt P09619). Nature of the data set: PDGF-BB induced phosphorylation of PDGFRβ in fibroblasts (MRC5 cells, HTRF). Format: cell-based. The conditions noted are these: MRC5 cells; n = 1 unless otherwise indicated; read-out: PDGFBB-induced PDGFRβ phosphorylation in MRC5 cells (IC50). (TR-FRET usually uses a lanthanide donor and a delayed reading to cut background.)

The target of data set [3] is T1, PDGFRβ. Particulars: read-out: Ki PDGFRβ; mean, n = 2 unless otherwise indicated.
Data set [4] is described as follows: PAMPA permeability assay. The class given is in vitro ADME. The conditions noted are these: for recovery at 5 hr, 10 μM: pH 7, PAMPA; for Papp at 5 h, 10 μM: pH 7, pH 7, 10 μM. On the technique in general: PAMPA measures passive passage across an artificial lipid membrane.
A short description of data set [5]: Pharmacokinetic measurements in mice (intravenous and intra-nasal dosing). Particulars: mouse; for concentration at 0.1 h / concentration at 1.5 h / concentration at 24 h: lung, read-out: lung concentration (nM) at time (h). Format: in vivo.
A short description of data set [6]: Pharmacokinetic measurements in rats (intravenous and intra-tracheal dosing). The class given is in vivo. The conditions noted are these: rat.
[7] abbreviates: PAMPA, donor and acceptor compartments.

T1 sequence (P09619 33-1106): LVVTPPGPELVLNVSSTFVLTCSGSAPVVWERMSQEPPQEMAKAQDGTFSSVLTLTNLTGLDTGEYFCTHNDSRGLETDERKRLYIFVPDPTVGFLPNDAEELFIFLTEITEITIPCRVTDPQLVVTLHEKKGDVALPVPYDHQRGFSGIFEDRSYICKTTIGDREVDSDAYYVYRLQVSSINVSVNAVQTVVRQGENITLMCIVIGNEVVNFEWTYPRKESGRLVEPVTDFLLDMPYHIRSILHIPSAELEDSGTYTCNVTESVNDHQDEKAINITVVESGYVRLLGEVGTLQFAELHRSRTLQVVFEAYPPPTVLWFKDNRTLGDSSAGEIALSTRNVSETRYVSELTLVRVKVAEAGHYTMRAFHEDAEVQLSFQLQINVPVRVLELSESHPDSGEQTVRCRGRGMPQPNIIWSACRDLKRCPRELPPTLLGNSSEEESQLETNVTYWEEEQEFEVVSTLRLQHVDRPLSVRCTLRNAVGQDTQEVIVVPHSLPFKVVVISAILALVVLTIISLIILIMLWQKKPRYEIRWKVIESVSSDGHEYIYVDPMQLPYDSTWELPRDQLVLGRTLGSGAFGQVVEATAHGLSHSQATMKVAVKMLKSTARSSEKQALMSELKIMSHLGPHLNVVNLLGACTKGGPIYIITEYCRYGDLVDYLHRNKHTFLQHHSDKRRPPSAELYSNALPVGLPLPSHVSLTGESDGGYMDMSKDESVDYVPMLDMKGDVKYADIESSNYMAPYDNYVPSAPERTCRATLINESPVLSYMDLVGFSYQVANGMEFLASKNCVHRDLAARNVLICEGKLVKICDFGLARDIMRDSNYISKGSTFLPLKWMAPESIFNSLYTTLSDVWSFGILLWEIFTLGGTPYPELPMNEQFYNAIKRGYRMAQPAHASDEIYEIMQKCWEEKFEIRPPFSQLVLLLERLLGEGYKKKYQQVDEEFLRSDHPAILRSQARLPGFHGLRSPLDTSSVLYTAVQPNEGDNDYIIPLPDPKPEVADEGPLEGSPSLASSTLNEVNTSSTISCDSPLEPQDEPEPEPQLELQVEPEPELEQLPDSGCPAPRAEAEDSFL

Consider `COC(=O)c1ccc2c(c1)NC(=O)/C2=C(\Nc1ccc(S(=O)(=O)N(C)OC)cc1)c1ccccc1` [Example 11], for which, in data set [1], the “Cell viability at 100 nM (%)” value is recorded as 104.8%, the “Cell viability at 300 nM (%)” value is on record as 91.5 (n = 2) % and the “Cell viability at 1000 nM (%)” value is reported as 94.8 (n = 2) %. The IC50 in data set [2] was 15.3 nM.
`COC(=O)c1ccc2c(c1)NC(=O)/C2=C(\Nc1ccc(C(=O)NOCCN2CCOCC2)cc1)c1ccccc1` [Example 12]: in data set [1], the “Cell viability at 100 nM (%)” value is listed as 104.8%, the “Cell viability at 300 nM (%)” value worked out at 101.7% and the “Cell viability at 1000 nM (%)” value was determined as 79.4%. In data set [3], the Ki was 11.6 nM. Besides, in data set [4] (setting [7]), the recovery at 5 hr, 10 μM came out at 41%. The molecule also showed an apparent permeability coefficient (Papp) at 5 h, 10 μM in data set [4] (PAMPA, 5 hr) of 0.564 ×10⁻⁶ cm/s.
Consider `COC(=O)c1ccc2c(c1)NC(=O)/C2=C(\Nc1ccc(C(=O)N(C)OCCN2CCN(C)CC2)cc1)c1ccccc1` [Example 14], for which, in data set [1], the “Cell viability at 100 nM (%)” value is given as 110.8%, the “Cell viability at 300 nM (%)” value stood at 96.9% and the “Cell viability at 1000 nM (%)” value amounted to 87.5%. In data set [3], the Ki came to 11.1 nM. Besides, the recovery at 5 hr, 10 μM in data set [4] (setting [7]) turned out to be 57.2%. The same molecule had an apparent permeability (Papp) at 5 h, 10 μM in data set [4] (PAMPA, 5 hr) of 0.434 ×10⁻⁶ cm/s.
With `COC(=O)c1ccc2c(c1)NC(=O)/C2=C(\Nc1ccc(C(=O)NOCCN2CCOCC2)c(C)c1)c1ccccc1` [Example 16], in data set [1], the “Cell viability at 100 nM (%)” value is 79%, the “Cell viability at 300 nM (%)” value amounted to 59.9% and the “Cell viability at 1000 nM (%)” value was 51.9%. In addition, the Ki in data set [3] came out at 14.1 nM.
With `COC(=O)c1ccc2c(c1)NC(=O)/C2=C(\Nc1ccc(C(=O)NOCCN2CCN(C)CC2)c(C)c1)c1ccccc1` [Example 17], in data set [1], the “Cell viability at 100 nM (%)” value is 83%, the “Cell viability at 300 nM (%)” value amounted to 90.5% and the “Cell viability at 1000 nM (%)” value is reported as 92.5%. For the same molecule, in data set [3], the inhibitory constant (Ki) came out at 11.7 nM. The recovery at 5 hr, 10 μM in data set [4] (setting [7]) is 91.9%. The same molecule registered a Papp at 5 h, 10 μM in data set [4] (PAMPA, 5 hr) of 0.0142 ×10⁻⁶ cm/s.
Consider `COC(=O)c1ccc2c(c1)NC(=O)/C2=C(\Nc1ccc(C(=O)NOCCN(C)C)c(F)c1)c1ccccc1` [Example 20], for which, in data set [1], the “Cell viability at 100 nM (%)” value amounted to 75.5%, the “Cell viability at 300 nM (%)” value is on record as 81.7% and the “Cell viability at 1000 nM (%)” value came to 90.7%. For the same molecule, the Ki in data set [3] was 11.1 nM. The “% Recovery” value in data set [4] (setting [7]) is 91.7% and 66.5%. Besides, the Papp at 5 h, 10 μM in data set [4] (PAMPA, 5 hr) is 0.0305 ×10⁻⁶ cm/s. Besides, in data set [4] (pH 7, 10 μM, 5 hr), the “Mean Papp” value is 0.0296 10^−6 cm s^−1.
On to `COC(=O)c1ccc2c(c1)NC(=O)/C2=C(\Nc1ccc(C(=O)N(CCN(C)C)OC)cc1)c1ccccc1` [Example 23], for which, in data set [1], the “Cell viability at 100 nM (%)” value is given as 93.1%, the “Cell viability at 300 nM (%)” value turned out to be 85.9% and the “Cell viability at 1000 nM (%)” value is recorded as 67.9%. In data set [3], the inhibitory constant (Ki) was found to be 12.2 nM. Further, the recovery at 5 hr, 10 μM in data set [4] (setting [7]) was 51.8%. Besides, in data set [4] (PAMPA, 5 hr), the Papp at 5 h, 10 μM is 20 ×10⁻⁶ cm/s.
Regarding `COC(=O)c1ccc2c(c1)NC(=O)/C2=C(\Nc1ccc(C(=O)N2CCN(C)CCO2)cc1)c1ccccc1` [Example 24], in data set [1], the “Cell viability at 100 nM (%)” value is 85.4%, the “Cell viability at 300 nM (%)” value is 104.7% and the “Cell viability at 1000 nM (%)” value is given as 103.1%. The Ki in data set [3] stood at 15.5 nM. In data set [4] (setting [7]), this molecule came in with a recovery at 5 hr, 10 μM of 71.8%. Further, in data set [4] (PAMPA, 5 hr), the apparent permeability coefficient (Papp) at 5 h, 10 μM is 44.8 ×10⁻⁶ cm/s.
Consider `COC(=O)c1cc2c(cc1C)/C(=C(/Nc1ccc(C(=O)NOCCN(C)C)cc1)c1ccccc1)C(=O)N2` [Example 26], for which, in data set [1], the “Cell viability at 100 nM (%)” value was 111.8%, the “Cell viability at 300 nM (%)” value is recorded as 111.4% and the “Cell viability at 1000 nM (%)” value is 88%. This molecule had a recovery at 5 hr, 10 μM in data set [4] (setting [7]) of 40.2%. For the same molecule, the apparent permeability coefficient (Papp) at 5 h, 10 μM in data set [4] (PAMPA, 5 hr) turned out to be 0.0156 ×10⁻⁶ cm/s.
Taken in the same sequence, the figures for `COC(=O)c1cc2c(cc1C)/C(=C(/Nc1ccc(C(=O)NOCCN3CCN(C)CC3)c(C)c1)c1ccccc1)C(=O)N2` [Example 28] were 110.2%, 117%, 104.8%, 69% and 0.00407 ×10⁻⁶ cm/s.
Taken in the same sequence, the figures for `COC(=O)c1cc2c(cc1C)/C(=C(/Nc1ccc(S(=O)(=O)NOCCN(C)C)cc1)c1ccccc1)C(=O)N2` [Example 48] were 132.6%, 121%, 103.5%, 67.4% and 0.22 ×10⁻⁶ cm/s.
For `COC(=O)c1cc2c(cc1C)/C(=C(/Nc1ccc(C(=O)NOCCCN3CCC(OC)CC3)cc1)c1ccccc1)C(=O)N2` [Example 55] the same measures were 106.7%, 111.1%, 92.3%, 59.1% and 0.154 ×10⁻⁶ cm/s.
On to `COC(=O)c1cc2c(cc1C)/C(=C(/Nc1ccc(C(=O)N(C)OCCN3CCN[C@@H](C)C3)cc1)c1ccccc1)C(=O)N2` [Example 62], for which, in data set [1], the “Cell viability at 100 nM (%)” value amounted to 80.7%, the “Cell viability at 300 nM (%)” value is 73.8% and the “Cell viability at 1000 nM (%)” value was −0.2%. Moreover, the recovery at 5 hr, 10 μM in data set [4] (setting [7]) was found to be 72.8%. In data set [4] (PAMPA, 5 hr), this molecule returned a Papp at 5 h, 10 μM of 0.00628 ×10⁻⁶ cm/s.
In the case of `COC(=O)c1cc2c(cc1C)/C(=C(/Nc1ccc(C(=O)N(C)OCCN3CCN[C@H](C)C3)cc1)c1ccccc1)C(=O)N2` [Example 65], in data set [1], the “Cell viability at 100 nM (%)” value is 118.6%, the “Cell viability at 300 nM (%)” value came out at 110.3% and the “Cell viability at 1000 nM (%)” value amounted to 70.5%.
Turning to `CCN(OCCN1CCNCC1)C(=O)c1ccc(N/C(=C2\C(=O)Nc3cc(C(=O)OC)c(C)cc32)c2ccccc2)cc1` [Example 68], in data set [2], the IC50 is 16.5 nM.
Turning to `COC(=O)c1cc2c(cc1C)/C(=C(/Nc1ccc(C(=O)N(OCCN3CCNCC3)C(C)C)cc1)c1ccccc1)C(=O)N2` [Example 69], in data set [1], the “Cell viability at 100 nM (%)” value worked out at 92.5%, the “Cell viability at 300 nM (%)” value came out at 93.1% and the “Cell viability at 1000 nM (%)” value was determined as 74.0%. In data set [2], the IC50 was determined as 14.3 nM.
Taken in the same sequence, the figures for `COC(=O)c1cc2c(cc1C)/C(=C(/Nc1ccc(C(=O)NOCCN3CCNC(=O)C3)cc1)c1ccccc1)C(=O)N2` [Example 70] were 91.7%, 99.7%, 94.0% and 9.98 nM.
In the case of `CNC(=O)CN1CCN(CCON(C)C(=O)c2ccc(N/C(=C3\C(=O)Nc4cc(C(=O)OC)ccc43)c3ccccc3)cc2)CC1` [Example 71], the IC50 in data set [2] was 23.2 nM.
For `CNC(=O)CN1CCN(CCONC(=O)c2ccc(N/C(=C3\C(=O)Nc4cc(C(=O)OC)ccc43)c3ccccc3)cc2)CC1` [Example 72], the concentration for half-maximal inhibition (IC50) in data set [2] stood at 36.7 nM.
As to `CNC(=O)CN1CCN(CCONC(=O)c2ccc(N/C(=C3\C(=O)Nc4cc(C(=O)OC)c(C)cc43)c3ccccc3)cc2)CC1` [Example 73], in data set [1], the “Cell viability at 100 nM (%)” value is recorded as 82.9%, the “Cell viability at 300 nM (%)” value was determined as 104% and the “Cell viability at 1000 nM (%)” value stood at 96.8%.
For `COC(=O)c1ccc2c(c1)NC(=O)/C2=C(\Nc1ccc(N(C)C(=O)CN2CCN(C)CC2)cc1)c1ccccc1` [Nintedanib, reference compound], the “Cell viability at 100 nM (%)” value in data set [1] is listed as 104.6%. In data set [1], the “Cell viability at 300 nM (%)” value was 105.6%. Besides, the “Cell viability at 1000 nM (%)” value in data set [1] was 92.7%. Further, the concentration at 0.1 h in data set [5] (male, C57BL/6J, iv, i.v. dosing, 0.1 h, mean) stood at 2380 nM; in data set [5] (male, C57BL/6J, other: intra-nasal, i.n. dosing, 0.1 h, mean), 2760 nM. The concentration at 1.5 h in data set [5] (male, C57BL/6J, iv, i.v. dosing, 1.5 h, mean) came out at 1340 nM; in data set [5] (male, C57BL/6J, other: intra-nasal, i.n. dosing, 1.5 h, mean), 804 nM. In addition, the concentration at 24 h in data set [5] (male, C57BL/6J, iv, i.v. dosing, mean) turned out to be 10 nM; in data set [5] (male, C57BL/6J, other: intra-nasal, i.n. dosing, mean) it was 15 nM. This molecule returned a clearance in data set [5] (male, C57BL/6J, whole blood, iv) of 81 mL/min/kg. The molecule also registered an MRT in data set [5] (male, C57BL/6J, whole blood, iv, i.v. dosing, mean) of 2 h. Also, the Vd in data set [5] (male, C57BL/6J, whole blood, iv, i.v. dosing, mean, read-out: Vss) amounted to 10 L/kg. The half-life in data set [5] (male, C57BL/6J, whole blood, iv, i.v. dosing, mean, read-out: t½ (converted)) was 2 h. In addition, the “BAL % administered dose at time (h)” value in data set [5] (i.n. dosing, 0.1 h) is 0.5%; in data set [5] (i.n. dosing, 1.5 h) it was 0.1%; in data set [5] (i.v. dosing, 0.1 h), 0.3%; in data set [5] (i.v. dosing, 1.5 h) it was 0.03%; in data set [6] (i.t. dosing, 0.1 h) it was 2%; in data set [6] (i.t. dosing, 1.5 h) it was 1%. The “BAL % administered dose at time (h)” value in data set [6] (i.t. dosing, 24 h) is listed as 0.1%; in data set [6] (i.v. dosing, 0.1 h), 0.06%; in data set [6] (i.v. dosing, 1.5 h) it was 0.03%; in data set [6] (i.v. dosing, 24 h), “BQL”. The “i.t. BAV (%)” value in data set [6] (i.t. dosing (i.t. dose 0.1-0.5 per compound)) turned out to be 43%.
